Laboratory results as given in patent US20170320870A1 (Medical Research Council Technology, priority 2009, published 2017).

What was measured:
Assay in all cases: Kinase selectivity: percentage inhibition of each specific kinase at 1 μM inhibitor concentration
Type in all cases: biochemical
[1] = molecular target: each specific kinase (kinase selectivity panel, Table 2) (Homo sapiens, UniProt O00141); conditions: SGK1
Description: (§1) Values are expressed as percentage inhibition of the each specific kinase at 1 μM inhibitor concentration.

[2] = molecular target: each specific kinase (kinase selectivity panel, Table 2) (Homo sapiens, UniProt O14757); conditions: CHK1
Description: as §1

[3] = molecular target: each specific kinase (kinase selectivity panel, Table 2) (Homo sapiens, UniProt O14920); conditions: IKKb
Description: as §1

[4] = molecular target: each specific kinase (kinase selectivity panel, Table 2) (Homo sapiens, UniProt O60285); conditions: NUAK1
Description: as §1

[5] = molecular target: each specific kinase (kinase selectivity panel, Table 2) (Homo sapiens, UniProt O60674); conditions: JAK2
Description: as §1

[6] = molecular target: each specific kinase (kinase selectivity panel, Table 2) (Homo sapiens, UniProt O75582); conditions: MSK1
Description: as §1

[7] = molecular target: each specific kinase (kinase selectivity panel, Table 2) (Homo sapiens, UniProt O96017); conditions: CHK2
Description: as §1

[8] = molecular target: each specific kinase (kinase selectivity panel, Table 2) (Homo sapiens, UniProt P06213); conditions: IR
Description: as §1

[9] = molecular target: each specific kinase (kinase selectivity panel, Table 2) (Homo sapiens, UniProt P08069); conditions: IGF-1R
Description: as §1

[10] = molecular target: each specific kinase (kinase selectivity panel, Table 2) (Homo sapiens, UniProt P11362); conditions: FGF-R1
Description: as §1

[11] = molecular target: each specific kinase (kinase selectivity panel, Table 2) (Homo sapiens, UniProt P17252); conditions: PKCa
Description: as §1

[12] = molecular target: each specific kinase (kinase selectivity panel, Table 2) (Homo sapiens, UniProt P27448); conditions: MARK3
Description: as §1

[13] = molecular target: each specific kinase (kinase selectivity panel, Table 2) (Homo sapiens, UniProt P28482); conditions: ERK2
Description: as §1

[14] = molecular target: each specific kinase (kinase selectivity panel, Table 2) (Homo sapiens, UniProt P29317); conditions: EPH-A2
Description: as §1

[15] = molecular target: each specific kinase (kinase selectivity panel, Table 2) (Homo sapiens, UniProt P31749); conditions: PKBa
Description: as §1

[16] = molecular target: each specific kinase (kinase selectivity panel, Table 2) (Homo sapiens, UniProt P31751); conditions: PKBb
Description: as §1

[17] = molecular target: each specific kinase (kinase selectivity panel, Table 2) (Homo sapiens, UniProt P45983); conditions: JNK1
Description: as §1

[18] = molecular target: each specific kinase (kinase selectivity panel, Table 2) (Homo sapiens, UniProt P49841); conditions: GSK3b
Description: as §1

[19] = molecular target: each specific kinase (kinase selectivity panel, Table 2) (Homo sapiens, UniProt P68400); conditions: CK2
Description: as §1

[20] = molecular target: each specific kinase (kinase selectivity panel, Table 2) (Homo sapiens, UniProt P80192); conditions: MLK1
Description: as §1

[21] = molecular target: each specific kinase (kinase selectivity panel, Table 2) (Homo sapiens, UniProt Q05513); conditions: PKCz
Description: as §1

[22] = molecular target: each specific kinase (kinase selectivity panel, Table 2) (Homo sapiens, UniProt Q06187); conditions: BTK
Description: as §1

[23] = molecular target: each specific kinase (kinase selectivity panel, Table 2) (Homo sapiens, UniProt Q12851); conditions: GCK
Description: as §1

[24] = molecular target: each specific kinase (kinase selectivity panel, Table 2) (Homo sapiens, UniProt Q13627); conditions: DYRK1A
Description: as §1

[25] = molecular target: each specific kinase (kinase selectivity panel, Table 2) (Homo sapiens, UniProt Q15746); conditions: SmMLCK
Description: as §1

[26] = molecular target: each specific kinase (kinase selectivity panel, Table 2) (Homo sapiens, UniProt Q16584); conditions: MLK3
Description: as §1

[27] = molecular target: each specific kinase (kinase selectivity panel, Table 2) (Homo sapiens, UniProt Q8IWQ3); conditions: BRSK2
Description: as §1

[28] = molecular target: each specific kinase (kinase selectivity panel, Table 2) (Homo sapiens, UniProt Q96GD4); conditions: Aurora B
Description: as §1

[29] = molecular target: each specific kinase (kinase selectivity panel, Table 2) (Homo sapiens, UniProt Q96RR4); conditions: CAMKKb
Description: as §1

[30] = molecular target: each specific kinase (kinase selectivity panel, Table 2) (Homo sapiens, UniProt Q96SB4); conditions: SRPK1
Description: as §1

[31] = molecular target: each specific kinase (kinase selectivity panel, Table 2) (Homo sapiens, UniProt Q9HBH9); conditions: MNK2
Description: as §1

[32] = molecular target: each specific kinase (kinase selectivity panel, Table 2) (Homo sapiens, UniProt Q9HC98); conditions: NEK6
Description: as §1

[33] = molecular target: each specific kinase (kinase selectivity panel, Table 2) (Homo sapiens, UniProt Q9P289); conditions: MST4
Description: as §1

[34] = test system: each specific kinase (kinase selectivity panel, Table 2)
Description: as §1

Sequence of each specific kinase (kinase selectivity panel, Table 2) (Homo sapiens, UniProt P45983) (P45983 whole entry): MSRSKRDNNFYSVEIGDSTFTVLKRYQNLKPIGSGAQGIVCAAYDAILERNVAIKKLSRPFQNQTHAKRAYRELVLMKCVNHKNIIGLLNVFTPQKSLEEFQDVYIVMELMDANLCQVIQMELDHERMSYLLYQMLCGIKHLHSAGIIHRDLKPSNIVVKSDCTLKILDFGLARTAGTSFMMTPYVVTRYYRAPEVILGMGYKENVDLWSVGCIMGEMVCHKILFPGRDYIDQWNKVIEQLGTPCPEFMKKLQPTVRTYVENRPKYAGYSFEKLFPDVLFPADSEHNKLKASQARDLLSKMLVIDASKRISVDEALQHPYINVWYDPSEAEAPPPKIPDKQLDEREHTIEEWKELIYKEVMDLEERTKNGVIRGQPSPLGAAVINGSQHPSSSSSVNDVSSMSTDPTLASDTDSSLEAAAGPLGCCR
Sequence of each specific kinase (kinase selectivity panel, Table 2) (Homo sapiens, UniProt P06213) (P06213 28-1382): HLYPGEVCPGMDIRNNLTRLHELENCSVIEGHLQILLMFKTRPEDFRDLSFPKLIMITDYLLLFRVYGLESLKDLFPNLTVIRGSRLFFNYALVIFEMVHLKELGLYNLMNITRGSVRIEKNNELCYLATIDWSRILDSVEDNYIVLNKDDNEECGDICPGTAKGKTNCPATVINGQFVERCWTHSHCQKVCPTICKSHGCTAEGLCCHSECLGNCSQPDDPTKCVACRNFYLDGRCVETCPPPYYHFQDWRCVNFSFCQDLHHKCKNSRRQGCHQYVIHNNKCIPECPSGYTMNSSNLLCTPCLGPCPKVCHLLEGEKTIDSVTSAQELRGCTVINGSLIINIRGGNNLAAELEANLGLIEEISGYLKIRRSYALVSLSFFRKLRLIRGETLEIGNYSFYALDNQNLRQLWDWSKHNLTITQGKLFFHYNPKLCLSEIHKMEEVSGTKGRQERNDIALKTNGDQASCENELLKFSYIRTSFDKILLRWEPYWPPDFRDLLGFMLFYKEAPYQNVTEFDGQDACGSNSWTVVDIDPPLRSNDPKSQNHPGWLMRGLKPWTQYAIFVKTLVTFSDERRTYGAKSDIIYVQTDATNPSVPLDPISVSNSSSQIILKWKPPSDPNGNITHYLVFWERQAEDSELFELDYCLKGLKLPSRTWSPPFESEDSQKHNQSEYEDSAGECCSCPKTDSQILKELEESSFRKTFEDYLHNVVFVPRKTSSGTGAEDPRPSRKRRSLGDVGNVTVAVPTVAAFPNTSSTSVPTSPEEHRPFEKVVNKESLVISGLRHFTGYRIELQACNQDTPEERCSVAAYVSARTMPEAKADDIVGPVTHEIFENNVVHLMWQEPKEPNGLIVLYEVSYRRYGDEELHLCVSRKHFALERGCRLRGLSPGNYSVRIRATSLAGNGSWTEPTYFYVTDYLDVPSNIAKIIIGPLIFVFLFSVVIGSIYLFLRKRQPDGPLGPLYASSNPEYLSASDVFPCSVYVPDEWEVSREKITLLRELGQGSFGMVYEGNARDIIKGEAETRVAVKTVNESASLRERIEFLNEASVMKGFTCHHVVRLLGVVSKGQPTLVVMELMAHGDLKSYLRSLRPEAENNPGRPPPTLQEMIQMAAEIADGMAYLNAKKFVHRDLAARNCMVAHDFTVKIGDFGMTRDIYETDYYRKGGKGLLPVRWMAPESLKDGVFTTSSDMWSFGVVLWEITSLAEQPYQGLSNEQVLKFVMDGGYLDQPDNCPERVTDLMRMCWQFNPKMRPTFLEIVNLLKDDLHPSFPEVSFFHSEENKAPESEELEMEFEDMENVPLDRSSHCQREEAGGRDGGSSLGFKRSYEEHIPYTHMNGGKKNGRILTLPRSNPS
Sequence of each specific kinase (kinase selectivity panel, Table 2) (Homo sapiens, UniProt Q96RR4) (Q96RR4 whole entry): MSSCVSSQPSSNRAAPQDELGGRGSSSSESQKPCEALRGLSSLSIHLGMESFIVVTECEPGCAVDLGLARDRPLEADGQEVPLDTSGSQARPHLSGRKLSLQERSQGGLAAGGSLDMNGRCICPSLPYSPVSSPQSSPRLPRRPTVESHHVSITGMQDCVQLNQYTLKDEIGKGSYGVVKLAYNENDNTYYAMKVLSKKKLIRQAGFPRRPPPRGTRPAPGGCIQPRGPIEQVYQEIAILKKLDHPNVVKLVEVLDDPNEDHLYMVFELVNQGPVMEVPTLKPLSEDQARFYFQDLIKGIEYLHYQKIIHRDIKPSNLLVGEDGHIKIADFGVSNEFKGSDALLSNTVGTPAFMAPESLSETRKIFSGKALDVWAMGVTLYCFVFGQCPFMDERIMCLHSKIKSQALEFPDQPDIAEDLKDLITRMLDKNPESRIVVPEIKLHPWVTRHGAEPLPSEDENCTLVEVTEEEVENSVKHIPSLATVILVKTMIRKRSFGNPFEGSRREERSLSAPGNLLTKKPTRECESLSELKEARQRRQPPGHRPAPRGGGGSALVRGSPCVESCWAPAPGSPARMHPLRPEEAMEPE
Sequence of each specific kinase (kinase selectivity panel, Table 2) (Homo sapiens, UniProt O96017) (O96017 whole entry): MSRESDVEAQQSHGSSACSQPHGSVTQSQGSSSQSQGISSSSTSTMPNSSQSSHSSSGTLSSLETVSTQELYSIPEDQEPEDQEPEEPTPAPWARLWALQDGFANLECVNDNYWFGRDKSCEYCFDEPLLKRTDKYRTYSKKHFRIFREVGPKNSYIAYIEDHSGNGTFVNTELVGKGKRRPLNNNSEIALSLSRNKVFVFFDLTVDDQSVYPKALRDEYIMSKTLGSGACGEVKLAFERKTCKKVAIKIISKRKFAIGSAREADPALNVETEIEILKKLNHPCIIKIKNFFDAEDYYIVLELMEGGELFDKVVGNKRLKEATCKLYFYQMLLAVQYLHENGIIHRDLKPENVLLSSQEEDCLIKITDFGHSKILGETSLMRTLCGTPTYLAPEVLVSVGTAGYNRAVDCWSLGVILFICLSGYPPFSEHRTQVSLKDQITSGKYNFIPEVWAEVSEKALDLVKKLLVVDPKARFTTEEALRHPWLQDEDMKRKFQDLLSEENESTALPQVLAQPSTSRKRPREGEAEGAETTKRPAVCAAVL
Sequence of each specific kinase (kinase selectivity panel, Table 2) (Homo sapiens, UniProt O75582) (O75582 whole entry): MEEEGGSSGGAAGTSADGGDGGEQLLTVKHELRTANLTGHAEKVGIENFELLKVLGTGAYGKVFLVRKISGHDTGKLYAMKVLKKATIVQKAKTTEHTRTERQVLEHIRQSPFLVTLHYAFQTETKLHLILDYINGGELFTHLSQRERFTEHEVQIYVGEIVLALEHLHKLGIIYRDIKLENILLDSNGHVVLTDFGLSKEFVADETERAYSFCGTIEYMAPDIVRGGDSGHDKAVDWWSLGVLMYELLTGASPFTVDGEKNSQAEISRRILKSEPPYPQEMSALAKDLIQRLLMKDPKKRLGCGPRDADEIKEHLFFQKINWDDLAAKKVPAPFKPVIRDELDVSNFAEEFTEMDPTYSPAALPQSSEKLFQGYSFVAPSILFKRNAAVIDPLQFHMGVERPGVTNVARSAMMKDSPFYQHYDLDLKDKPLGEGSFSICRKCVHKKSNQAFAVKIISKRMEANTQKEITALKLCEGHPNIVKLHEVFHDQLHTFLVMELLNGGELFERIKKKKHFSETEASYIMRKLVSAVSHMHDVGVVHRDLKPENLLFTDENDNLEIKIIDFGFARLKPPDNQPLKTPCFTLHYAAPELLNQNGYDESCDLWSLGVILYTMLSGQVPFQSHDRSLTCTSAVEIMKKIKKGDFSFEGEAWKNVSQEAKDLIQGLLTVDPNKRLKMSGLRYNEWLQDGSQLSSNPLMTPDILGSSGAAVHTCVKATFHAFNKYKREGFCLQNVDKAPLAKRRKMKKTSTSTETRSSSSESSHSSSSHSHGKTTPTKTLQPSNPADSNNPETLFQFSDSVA
Sequence of each specific kinase (kinase selectivity panel, Table 2) (Homo sapiens, UniProt Q16584) (Q16584 whole entry): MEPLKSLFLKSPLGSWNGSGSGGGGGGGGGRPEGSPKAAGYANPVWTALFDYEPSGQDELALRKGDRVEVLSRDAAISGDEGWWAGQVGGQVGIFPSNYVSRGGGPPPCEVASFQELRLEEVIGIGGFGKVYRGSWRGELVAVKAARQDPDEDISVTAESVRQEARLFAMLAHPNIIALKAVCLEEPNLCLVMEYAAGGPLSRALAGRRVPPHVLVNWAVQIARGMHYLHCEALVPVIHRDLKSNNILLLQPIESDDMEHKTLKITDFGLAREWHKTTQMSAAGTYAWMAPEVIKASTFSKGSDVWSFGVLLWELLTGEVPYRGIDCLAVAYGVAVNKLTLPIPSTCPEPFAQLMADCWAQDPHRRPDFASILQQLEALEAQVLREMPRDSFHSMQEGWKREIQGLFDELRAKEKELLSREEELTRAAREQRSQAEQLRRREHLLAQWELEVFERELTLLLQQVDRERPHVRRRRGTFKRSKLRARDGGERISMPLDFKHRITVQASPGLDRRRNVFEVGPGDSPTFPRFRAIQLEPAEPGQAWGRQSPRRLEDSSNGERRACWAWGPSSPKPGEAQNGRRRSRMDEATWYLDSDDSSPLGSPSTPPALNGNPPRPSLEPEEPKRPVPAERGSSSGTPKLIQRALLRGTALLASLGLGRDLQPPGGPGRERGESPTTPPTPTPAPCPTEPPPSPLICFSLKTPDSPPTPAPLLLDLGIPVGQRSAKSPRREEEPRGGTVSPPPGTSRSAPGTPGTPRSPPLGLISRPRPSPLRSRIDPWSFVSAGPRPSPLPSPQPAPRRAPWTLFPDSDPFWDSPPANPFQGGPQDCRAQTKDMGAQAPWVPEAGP
Sequence of each specific kinase (kinase selectivity panel, Table 2) (Homo sapiens, UniProt Q9P289) (Q9P289 whole entry): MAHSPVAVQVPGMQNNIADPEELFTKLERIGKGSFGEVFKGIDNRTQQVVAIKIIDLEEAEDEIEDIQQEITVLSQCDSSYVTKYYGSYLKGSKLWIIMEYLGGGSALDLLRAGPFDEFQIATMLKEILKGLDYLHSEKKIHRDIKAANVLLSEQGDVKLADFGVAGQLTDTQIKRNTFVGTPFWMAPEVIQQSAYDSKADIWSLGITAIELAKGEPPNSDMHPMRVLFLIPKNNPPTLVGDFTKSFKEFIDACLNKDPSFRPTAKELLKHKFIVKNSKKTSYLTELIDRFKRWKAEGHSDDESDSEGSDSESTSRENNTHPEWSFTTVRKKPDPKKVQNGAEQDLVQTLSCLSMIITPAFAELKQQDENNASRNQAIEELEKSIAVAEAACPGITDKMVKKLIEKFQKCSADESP

Row | Structure (SMILES) | percentage inhibition of SGK1 [1] | percentage inhibition of CHK1 [2] | percentage inhibition of IKKb [3] | percentage inhibition of NUAK1 [4] | percentage inhibition of JAK2 [5] | percentage inhibition of MSK1 [6] | percentage inhibition of CHK2 [7] | percentage inhibition of IR [8] | percentage inhibition of IGF-1R [9] | percentage inhibition of FGF-R1 [10] | percentage inhibition of PKCa [11] | percentage inhibition of MARK3 [12] | percentage inhibition of ERK2 [13] | percentage inhibition of EPH-A2 [14] | percentage inhibition of PKBa [15] | percentage inhibition of PKBb [16] | percentage inhibition of JNK1 [17] | percentage inhibition of GSK3b [18] | percentage inhibition of CK2 [19] | percentage inhibition of MLK1 [20] | further results
1 | CC[C@H](C)Oc1nccc2[nH]nc(C)c12 [Example 121, 4-((S)-sec-Butoxy)-3-methyl-1H-pyrazolo[4,3-c]pyridine] | 23 percentage | 10 percentage | 15 percentage | 59 percentage | 47 percentage | 48 percentage | 13 percentage | 8 percentage | 46 percentage | 36 percentage | 2 percentage | 12 percentage | 0 percentage | 8 percentage | 19 percentage | 3 percentage | 7 percentage | 25 percentage | 0 percentage | 19 percentage | percentage inhibition of PKCz [21]: 0 percentage; percentage inhibition of BTK [22]: 0 percentage; percentage inhibition of GCK [23]: 68 percentage; percentage inhibition of DYRK1A [24]: 27 percentage; percentage inhibition of SmMLCK [25]: 22 percentage; percentage inhibition of MLK3 [26]: 23 percentage; percentage inhibition of BRSK2 [27]: 13 percentage; percentage inhibition of Aurora B [28]: 0 percentage; percentage inhibition of CAMKKb [29]: 12 percentage; percentage inhibition of SRPK1 [30]: 21 percentage; percentage inhibition of MNK2 [31]: 7 percentage; percentage inhibition of NEK6 [32]: 6 percentage; percentage inhibition of MST4 [33]: 23 percentage; percentage inhibition of AMPK [34]: 29 percentage; percentage inhibition of PHK [34]: 7 percentage
2 | O=C(CCc1n[nH]c2ccnc(NC3CCCCC3)c12)N1CCC[C@H](c2ccccc2)C1 [Example 172, 3-(4-Cyclohexylamino-1H-pyrazolo[4,3-c]pyridin-3-yl)-1-((R)-3-phenyl-piperidin-1-yl)-propan-1-one] | 1 percentage | 0 percentage | 22 percentage | 14 percentage | 12 percentage | 1 percentage | 40 percentage | 4 percentage | 18 percentage | 0 percentage | 0 percentage | 18 percentage | 9 percentage | 0 percentage | 0 percentage | 0 percentage | 17 percentage | 5 percentage | 3 percentage | 13 percentage | percentage inhibition of PKCz [21]: 10 percentage; percentage inhibition of BTK [22]: 12 percentage; percentage inhibition of GCK [23]: 19 percentage; percentage inhibition of DYRK1A [24]: 27 percentage; percentage inhibition of SmMLCK [25]: 18 percentage; percentage inhibition of MLK3 [26]: 29 percentage; percentage inhibition of BRSK2 [27]: 0 percentage; percentage inhibition of Aurora B [28]: 15 percentage; percentage inhibition of CAMKKb [29]: 21 percentage; percentage inhibition of SRPK1 [30]: 17 percentage; percentage inhibition of MNK2 [31]: 0 percentage; percentage inhibition of NEK6 [32]: 1 percentage; percentage inhibition of MST4 [33]: 10 percentage; percentage inhibition of AMPK [34]: 0 percentage; percentage inhibition of PHK [34]: 26 percentage
